Each structure is given as a SMILES string.

Usually IC50 stands for the point on the concentration scale where inhibition reaches its midpoint.

In assay [1] the target is PI3K-gamma (Homo sapiens, UniProt P48736). As to the kind of experiment: PI3K-gamma fluorescence polarization assay. As to conditions: read-out: IC50 PI3Kγ. (In fluorescence polarisation assays a small probe gives low polarisation when free and higher when bound to something large.)
Assay [2] addresses PI3K-alpha (Homo sapiens, UniProt P42336). Kind of assay: PI3K-alpha fluorescence polarization assay. The settings on record: read-out: IC50 PI3Kα.

PI3K-alpha, sequence (P42336 whole entry, species assumed): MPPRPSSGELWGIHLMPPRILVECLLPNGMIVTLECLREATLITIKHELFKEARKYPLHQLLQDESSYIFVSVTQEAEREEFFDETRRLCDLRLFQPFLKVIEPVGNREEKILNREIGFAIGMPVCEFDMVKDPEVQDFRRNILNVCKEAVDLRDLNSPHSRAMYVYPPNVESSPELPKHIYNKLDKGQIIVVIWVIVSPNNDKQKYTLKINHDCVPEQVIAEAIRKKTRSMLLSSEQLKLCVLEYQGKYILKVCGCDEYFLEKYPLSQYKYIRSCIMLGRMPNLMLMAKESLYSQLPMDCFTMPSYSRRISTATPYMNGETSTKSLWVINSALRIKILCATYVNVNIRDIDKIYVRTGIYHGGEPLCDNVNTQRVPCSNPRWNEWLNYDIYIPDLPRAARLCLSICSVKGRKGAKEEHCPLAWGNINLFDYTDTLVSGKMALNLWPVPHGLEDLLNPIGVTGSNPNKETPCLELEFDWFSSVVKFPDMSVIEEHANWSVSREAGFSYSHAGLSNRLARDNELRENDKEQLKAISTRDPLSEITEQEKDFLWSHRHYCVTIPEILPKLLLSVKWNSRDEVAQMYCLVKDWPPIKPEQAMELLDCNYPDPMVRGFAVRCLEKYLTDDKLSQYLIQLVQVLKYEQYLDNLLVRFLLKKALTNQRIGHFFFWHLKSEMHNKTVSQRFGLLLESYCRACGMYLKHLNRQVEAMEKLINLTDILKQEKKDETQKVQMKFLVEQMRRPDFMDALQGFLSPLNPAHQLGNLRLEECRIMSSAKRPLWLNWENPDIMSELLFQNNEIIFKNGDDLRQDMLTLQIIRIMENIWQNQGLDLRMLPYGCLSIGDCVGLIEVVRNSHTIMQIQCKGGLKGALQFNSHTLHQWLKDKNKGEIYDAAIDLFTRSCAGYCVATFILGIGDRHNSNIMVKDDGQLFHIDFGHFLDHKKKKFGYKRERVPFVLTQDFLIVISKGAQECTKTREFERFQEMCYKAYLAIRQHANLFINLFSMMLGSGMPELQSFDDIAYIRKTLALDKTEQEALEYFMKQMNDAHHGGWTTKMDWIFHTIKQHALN
PI3K-alpha, sequence (P27986 whole entry partner, species assumed): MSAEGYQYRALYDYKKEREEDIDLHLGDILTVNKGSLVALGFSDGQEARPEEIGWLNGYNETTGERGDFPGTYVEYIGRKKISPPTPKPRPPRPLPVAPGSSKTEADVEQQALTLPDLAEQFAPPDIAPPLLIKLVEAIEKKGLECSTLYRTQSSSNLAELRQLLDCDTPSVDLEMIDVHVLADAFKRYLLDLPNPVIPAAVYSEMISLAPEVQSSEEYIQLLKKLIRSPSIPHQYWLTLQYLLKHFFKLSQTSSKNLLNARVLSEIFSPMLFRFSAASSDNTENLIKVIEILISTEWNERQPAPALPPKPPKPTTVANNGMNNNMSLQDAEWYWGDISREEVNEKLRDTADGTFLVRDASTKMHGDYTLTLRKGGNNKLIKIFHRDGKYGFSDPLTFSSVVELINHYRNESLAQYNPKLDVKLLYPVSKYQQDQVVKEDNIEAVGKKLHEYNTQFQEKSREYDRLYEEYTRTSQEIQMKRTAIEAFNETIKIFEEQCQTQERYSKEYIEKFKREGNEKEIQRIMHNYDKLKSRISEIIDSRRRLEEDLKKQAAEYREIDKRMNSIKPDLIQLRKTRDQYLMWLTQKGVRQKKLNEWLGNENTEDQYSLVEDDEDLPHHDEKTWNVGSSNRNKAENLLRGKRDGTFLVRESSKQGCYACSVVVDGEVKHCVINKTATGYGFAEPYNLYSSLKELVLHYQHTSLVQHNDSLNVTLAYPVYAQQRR
PI3K-gamma, sequence (P48736 whole entry, species assumed): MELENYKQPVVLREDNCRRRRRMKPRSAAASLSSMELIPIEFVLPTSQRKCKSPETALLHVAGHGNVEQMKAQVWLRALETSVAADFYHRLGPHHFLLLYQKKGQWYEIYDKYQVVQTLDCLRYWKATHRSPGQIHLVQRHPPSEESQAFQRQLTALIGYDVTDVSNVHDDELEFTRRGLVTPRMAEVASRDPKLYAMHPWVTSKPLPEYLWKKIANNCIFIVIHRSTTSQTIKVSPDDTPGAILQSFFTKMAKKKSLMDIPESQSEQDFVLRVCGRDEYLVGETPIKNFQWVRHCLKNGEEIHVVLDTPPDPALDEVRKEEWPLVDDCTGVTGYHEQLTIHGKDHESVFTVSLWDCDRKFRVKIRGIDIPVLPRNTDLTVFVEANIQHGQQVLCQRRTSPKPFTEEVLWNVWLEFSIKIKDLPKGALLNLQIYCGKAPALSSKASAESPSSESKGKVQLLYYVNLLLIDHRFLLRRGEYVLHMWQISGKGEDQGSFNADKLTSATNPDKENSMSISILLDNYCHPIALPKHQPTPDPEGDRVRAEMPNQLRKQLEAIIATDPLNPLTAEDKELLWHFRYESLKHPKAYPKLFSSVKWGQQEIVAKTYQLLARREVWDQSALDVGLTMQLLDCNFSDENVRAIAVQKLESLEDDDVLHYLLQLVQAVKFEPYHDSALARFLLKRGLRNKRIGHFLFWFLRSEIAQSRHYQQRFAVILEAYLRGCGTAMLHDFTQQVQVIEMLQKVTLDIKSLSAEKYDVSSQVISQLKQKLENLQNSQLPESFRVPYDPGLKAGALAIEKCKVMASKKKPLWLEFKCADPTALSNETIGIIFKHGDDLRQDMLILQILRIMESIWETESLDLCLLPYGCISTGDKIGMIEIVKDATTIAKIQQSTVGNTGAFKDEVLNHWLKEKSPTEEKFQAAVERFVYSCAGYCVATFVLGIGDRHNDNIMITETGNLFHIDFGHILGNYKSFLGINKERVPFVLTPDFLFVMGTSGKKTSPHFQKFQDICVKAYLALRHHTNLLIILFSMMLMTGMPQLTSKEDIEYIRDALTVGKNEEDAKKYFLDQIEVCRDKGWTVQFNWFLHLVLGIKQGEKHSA

On to `CC(C)N1CCCN(c2nc(-c3ccc(NC(=O)Nc4ccc(C(=O)N5CC[C@@H](N(C)C)C5)cc4)cc3)nc(N3CCOCC3)n2)CC1` [Example 844, 1-(4-{[(3R)-3-(dimethylamino)pyrrolidin-1-yl]carbonyl}phenyl)-3-(4-{4-(morpholin-4-yl)-6-[4-(propan-2-yl)-1,4-diazepan-1-yl]-1,3,5-triazin-2-yl}phenyl)urea], for which the IC50 came out at 238 nM in assay [1] and 21 nM in assay [2].

For `CC1CNCCN1C(=O)c1ccc(NC(=O)Nc2ccc(-c3nc(N4CCOCC4)nc(N4CCOCC4)n3)cc2)cc1` (stereo not drawn) [Example 845, 1-{4-[4,6-di(morpholin-4-yl)-1,3,5-triazin-2-yl]phenyl}-3-{4-[(2-methylpiperazin-1-yl)carbonyl]phenyl}urea], the IC50 in assay [1] was determined as 2.75 nM; in assay [2] it was 0.25 nM.

For the molecule `CC(C)N1CCCN(c2nc(-c3ccc(NC(=O)Nc4ccc(C(=O)N5CCNCC5)cc4)cc3)nc(N3CCOCC3)n2)CC1` [Example 846, 1-(4-{4-(morpholin-4-yl)-6-[4-(propan-2-yl)-1,4-diazepan-1-yl]-1,3,5-triazin-2-yl}phenyl)-3-[4-(piperazin-1-ylcarbonyl)phenyl]urea], the IC50 in assay [1] is 22.5 nM; in assay [2], 3.5 nM.

As to `CC(C)N1CCCN(c2nc(-c3ccc(NC(=O)Nc4ccc(C(=O)N5CC[C@@H](N(C)C)C5)cc4)cc3)nc(N3CCOCC3)n2)CC1` [Example 847, 1-(4-{[(3R)-3-(dimethylamino)pyrrolidin-1-yl]carbonyl}phenyl)-3-(4-{4-(morpholin-4-yl)-6-[4-(propan-2-yl)-1,4-diazepan-1-yl]-1,3,5-triazin-2-yl}phenyl)urea], the IC50 in assay [1] turned out to be 87.5 nM; in assay [2], 10.5 nM.

For the molecule `CN1CCN(C(=O)c2ccc(NC(=O)Nc3ccc(-c4nc(N5CCOCC5)nc(N5CCOCC5)n4)cc3)cc2)CC1(C)C` [Example 848, 1-{4-[4,6-di(morpholin-4-yl)-1,3,5-triazin-2-yl]phenyl}-3-{4-[(3,3,4-trimethylpiperazin-1-yl)carbonyl]phenyl}urea], the IC50 in assay [1] worked out at 6 nM; in assay [2], 1.05 nM.

Regarding `C[C@@H]1CN(C(=O)c2ccc(NC(=O)Nc3ccc(-c4nc(N5CCOCC5)nc(N5CCOCC5)n4)cc3)cc2)CCN1` [Example 849, 1-{4-[4,6-di(morpholin-4-yl)-1,3,5-triazin-2-yl]phenyl}-3-(4-{[(3R)-3-methylpiperazin-1-yl]carbonyl}phenyl)urea], the half-maximal inhibitory concentration (IC50) in assay [1] was 3.17 nM; in assay [2], 0.3 nM.

`C[C@@H]1CN(C(=O)c2ccc(NC(=O)Nc3ccc(-c4nc(N5CCOCC5)nc(N5CCOCC5)n4)cc3)cc2)CCN1C` [Example 850, 1-(4-{[(3R)-3,4-dimethylpiperazin-1-yl]carbonyl}phenyl)-3-{4-[4,6-di(morpholin-4-yl)-1,3,5-triazin-2-yl]phenyl}urea]: the half-maximal inhibitory concentration (IC50) in assay [1] was determined as 6.1 nM; in assay [2], 0.65 nM.

Turning to `C[C@@H]1CN(C(=O)c2ccc(NC(=O)Nc3ccc(-c4nc(N5CCOCC5)nc(N5CCOCC5)n4)cc3)cc2)CCN1C1CCC1` [Example 851, 1-(4-{[(3R)-4-cyclobutyl-3-methylpiperazin-1-yl]carbonyl}phenyl)-3-{4-[4,6-di(morpholin-4-yl)-1,3,5-triazin-2-yl]phenyl}urea], the IC50 in assay [1] came out at 5.6 nM; in assay [2], 0.85 nM.

For the molecule `CC(C)N1CCN(C(=O)c2ccc(NC(=O)Nc3ccc(-c4nc(N5CCOCC5)nc(N5CCOCC5)n4)cc3)cc2)C[C@H]1C` [Example 852, 1-{4-[4,6-di(morpholin-4-yl)-1,3,5-triazin-2-yl]phenyl}-3-(4-{[(3R)-3-methyl-4-(propan-2-yl)piperazin-1-yl]carbonyl}phenyl)urea], the IC50 was 5.55 nM in assay [1] and 0.4 nM in assay [2].

`C[C@H]1CN(C(=O)c2ccc(NC(=O)Nc3ccc(-c4nc(N5CCOCC5)nc(N5CCOCC5)n4)cc3)cc2)CCN1` [Example 853, 1-{4-[4,6-di(morpholin-4-yl)-1,3,5-triazin-2-yl]phenyl}-3-(4-{[(3S)-3-methylpiperazin-1-yl]carbonyl}phenyl)urea]: the figures for the IC50 in assay [1] and in assay [2] were 5.05 nM and 0.3 nM, respectively.

On to `CC(C)N1CCCN(c2nc(-c3ccc(NC(=O)Nc4ccc(C(=O)N(C)CCN(C)C)cc4)cc3)nc(N3CCOC[C@@H]3C)n2)CC1` [Example 854, N-[2-(dimethylamino)ethyl]-N-methyl-4-{[(4-{4-[(3S)-3-methylmorpholin-4-yl]-6-[4-(propan-2-yl)-1,4-diazepan-1-yl]-1,3,5-triazin-2-yl}phenyl)carbamoyl]amino}benzamide], for which the IC50 in assay [1] turned out to be 164 nM; in assay [2] it was 8.84 nM.

Consider `CC(C)N1CCCN(c2nc(-c3ccc(NC(=O)Nc4ccc(C(=O)N5CCN(C)CC5)cc4)cc3)nc(N3CCOC[C@@H]3C)n2)CC1` [Example 855, 1-(4-{4-[(3S)-3-methylmorpholin-4-yl]-6-[4-(propan-2-yl)-1,4-diazepan-1-yl]-1,3,5-triazin-2-yl}phenyl)-3-{4-[(4-methylpiperazin-1-yl)carbonyl]phenyl}urea], for which the IC50 is 864 nM in assay [1] and 54 nM in assay [2].

For the molecule `CC(C)N1CCCN(c2nc(-c3ccc(NC(=O)Nc4ccc(C(=O)N5CC[C@H](N(C)C)C5)cc4)cc3)nc(N3CCOC[C@@H]3C)n2)CC1` [Example 856, 1-(4-{[(3S)-3-(dimethylamino)pyrrolidin-1-yl]carbonyl}phenyl)-3-(4-{4-[(3S)-3-methylmorpholin-4-yl]-6-[4-(propan-2-yl)-1,4-diazepan-1-yl]-1,3,5-triazin-2-yl}phenyl)urea], the IC50 in assay [1] is 532 nM; in assay [2], 28.5 nM.

For the molecule `CC(C)N1CCCN(c2nc(-c3ccc(NC(=O)Nc4ccc(C(=O)NCCCN(C)C)cc4)cc3)nc(N3CCOCC3)n2)CC1` [Example 857, N-[3-(dimethylamino)propyl]-4-{[(4-{4-(morpholin-4-yl)-6-[4-(propan-2-yl)-1,4-diazepan-1-yl]-1,3,5-triazin-2-yl}phenyl)carbamoyl]amino}benzamide], the IC50 worked out at 146 nM in assay [1] and 10 nM in assay [2].

Regarding `CC(C)N1CCCN(c2nc(-c3ccc(NC(=O)Nc4ccc(C(=O)N(C)CCN(C)C)cc4)cc3)nc(N3CCOCC3)n2)CC1` [Example 858, N-[2-(dimethylamino)ethyl]-N-methyl-4-{[(4-{4-(morpholin-4-yl)-6-[4-(propan-2-yl)-1,4-diazepan-1-yl]-1,3,5-triazin-2-yl}phenyl)carbamoyl]amino}benzamide], the values for the IC50 in assay [1] and in assay [2] were 134 nM and 5 nM, respectively.

`CC(C)N1CCCN(c2nc(-c3ccc(NC(=O)Nc4ccc(C(=O)N5CCOCC5)cc4)cc3)nc(N3CCOCC3)n2)CC1` [Example 859, 1-[4-(morpholin-4-ylcarbonyl)phenyl]-3-(4-{4-(morpholin-4-yl)-6-[4-(propan-2-yl)-1,4-diazepan-1-yl]-1,3,5-triazin-2-yl}phenyl)urea]: the IC50 turned out to be 240 nM in assay [1] and 17.9 nM in assay [2].

On to `COCCNC(=O)c1ccc(NC(=O)Nc2ccc(-c3nc(N4CCOCC4)nc(N4CCCN(C(C)C)CC4)n3)cc2)cc1` [Example 860, N-(2-methoxyethyl)-4-{[(4-{4-(morpholin-4-yl)-6-[4-(propan-2-yl)-1,4-diazepan-1-yl]-1,3,5-triazin-2-yl}phenyl)carbamoyl]amino}benzamide], for which the results for the half-inhibitory concentration (IC50) in assay [1] and in assay [2] were 434 nM and 57 nM, respectively.

On to `CC(C)N1CCCN(c2nc(-c3ccc(NC(=O)Nc4ccc(C(=O)N5CCCNCC5)cc4)cc3)nc(N3CCOCC3)n2)CC1` [Example 861, 1-[4-(1,4-diazepan-1-ylcarbonyl)phenyl]-3-(4-{4-(morpholin-4-yl)-6-[4-(propan-2-yl)-1,4-diazepan-1-yl]-1,3,5-triazin-2-yl}phenyl)urea], for which the figures for the IC50 in assay [1] and in assay [2] were 56 nM and 4 nM, respectively.

For the molecule `CC(C)N1CCCN(C(=O)c2ccc(NC(=O)Nc3ccc(-c4nc(N5CCOCC5)nc(N5CCCN(C(C)C)CC5)n4)cc3)cc2)CC1` [Example 862, 1-(4-{4-(morpholin-4-yl)-6-[4-(propan-2-yl)-1,4-diazepan-1-yl]-1,3,5-triazin-2-yl}phenyl)-3-(4-{[4-(propan-2-yl)-1,4-diazepan-1-yl]carbonyl}phenyl)urea], the IC50 in assay [1] came to 154 nM; in assay [2], 23.5 nM.

For the molecule `C[C@H]1CN(C(=O)c2ccc(NC(=O)Nc3ccc(-c4nc(N5CCOCC5)nc(N5CCOCC5)n4)cc3)cc2)CCN1C1CCC1` [Example 863, 1-(4-{[(3S)-4-cyclobutyl-3-methylpiperazin-1-yl]carbonyl}phenyl)-3-{4-[4,6-di(morpholin-4-yl)-1,3,5-triazin-2-yl]phenyl}urea], the results for the IC50 in assay [1] and in assay [2] were 8 nM and 2.1 nM, respectively.

With `C[C@H]1CN(C(=O)c2ccc(NC(=O)Nc3ccc(-c4nc(N5CCOCC5)nc(N5CCOCC5)n4)cc3)cc2)CCN1C` [Example 864, 1-(4-{[(3S)-3,4-dimethylpiperazin-1-yl]carbonyl}phenyl)-3-{4-[4,6-di(morpholin-4-yl)-1,3,5-triazin-2-yl]phenyl}urea], the half-maximal inhibitory concentration (IC50) in assay [1] came out at 7.5 nM; in assay [2], 1 nM.

On to `CN1CCN(C(=O)c2ccc(NC(=O)Nc3ccc(-c4nc(C5CCOCC5)nc(N5CCOCC5)n4)cc3)cc2)CC1(C)C` [Example 865, 1-{4-[4-(morpholin-4-yl)-6-(tetrahydro-2H-pyran-4-yl)-1,3,5-triazin-2-yl]phenyl}-3-{4-[(3,3,4-trimethylpiperazin-1-yl)carbonyl]phenyl}urea], for which the 50% inhibitory concentration (IC50) in assay [1] was 12 nM; in assay [2], 2.45 nM.

Consider `C[C@H]1CN(C(=O)c2ccc(NC(=O)Nc3ccc(-c4nc(C5CCOCC5)nc(N5CCOCC5)n4)cc3)cc2)CCN1C` [Example 866, 1-(4-{[(3S)-3,4-dimethylpiperazin-1-yl]carbonyl}phenyl)-3-{4-[4-(morpholin-4-yl)-6-(tetrahydro-2H-pyran-4-yl)-1,3,5-triazin-2-yl]phenyl}urea], for which the results for the IC50 in assay [1] and in assay [2] were 16.5 nM and 1.6 nM, respectively.

For the molecule `C[C@H]1CN(C(=O)c2ccc(NC(=O)Nc3ccc(-c4nc(C5CCOCC5)nc(N5CCOCC5)n4)cc3)cc2)CCN1` [Example 867, 1-(4-{[(3S)-3-methylpiperazin-1-yl]carbonyl}phenyl)-3-{4-[4-(morpholin-4-yl)-6-(tetrahydro-2H-pyran-4-yl)-1,3,5-triazin-2-yl]phenyl}urea], the figures for the IC50 in assay [1] and in assay [2] were 7 nM and 0.4 nM, respectively.

Values taken from patent US8748421B2, “Triazine compounds as P13 kinase and MTOR inhibitors” (Wyeth LLC, priority 2009, dated 2014).
